Test results published in US5238958A, “Substituted α-amino acids having selected acidic moieties for use as excitatory amino acid antagonists in pharmaceuticals” (Warner-Lambert Company, priority 1990, dated 1993).
Structures can show the parent of a compound that is named as a salt.

Target: NMDA receptor
Assay: NMDA receptor binding assay using [3H]CPP as antagonist ligand
Conditions: in vitro, essentially as Murphy et al, J. Pharm. Exp. Ther. 240:778 (1987)
Source text: The activity of the compounds of the formula I is shown in vitro in an NMDA receptor binding assay based on the use of [^3 H]CPP as antagonist ligand in a manner essentially as set out by B. E. Murphy, et al, in J. Pharm. Exp. Ther. 240:778 (1987).

IC50 [µM] | Structure (SMILES)
< 100 | NC(C(=O)O)c1ccc(O)c(CC(=O)O)c1 (stereo not drawn) [Example I2, α-Amino-4-hydroxy-1,3-benzenediacetic acid]
< 100 | NC(C(=O)O)c1ccc(CC(=O)O)c(O)c1 (racemic) [Example I3, 1,4-Benzenediaoetic acid, α-amino-2-hydroxy-,-monohydrochloride, (±)]
< 100 | NC(C(=O)O)c1ccc(CC(=O)O)cc1 (racemic) [Example I1, 1,4-Benzenediacetic acid, α-amino-, (±)]
